Assay results from patent publication US20160046618A1, “Cyclopropyl Fused Thiazin-2-Amine Compounds as Beta-Secretase Inhibitors and Methods of Use” (AMGEN INC., priority 2014, published 2016).

Columns and labels:
human recombinant BACE2 = human recombinant BACE2 (Homo sapiens (Human), UniProt Q9Y5Z0); test: In vitro enzymatic BACE2 FRET assay; format: biochemical; conditions: read-out: IC50 IP (μM) BACE2 enzyme
Method in brief: (§1)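 FRET cleavage assay using Ni-NTA-purified recombinant protease and 50 nM quenched peptide substrate, 1 h. Stopped by neutralising with Tris; fluorescence at 488/590 nm.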

Recombinant Cat D = Recombinant Cat D (Homo sapiens (Human), UniProt P07339); test: In vitro enzymatic Cathepsin D (Cat D) FRET assay; format: biochemical; conditions: read-out: IC50 IP (μM) CatD
Method in brief: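 CHO-expressed enzyme; buffer 0.05 M citrate pH 3.5, 5 mM CHAPS, 10% DMSO final. Start with FRET substrate 20 nM, 1 h incubation, Tris stop (pH to neutral), fluorescence ex 500 nm/em 580 nm.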

human recombinant BACE1 = human recombinant BACE1 (Homo sapiens (Human), UniProt P56817); test: In vitro enzymatic BACE1 FRET assay; format: biochemical; conditions: read-out: IC50 IP (μM) BACE1 enzyme
Method in brief: as §1

[1] = system: Aβ40 in conditioned medium of cells stably expressing Amyloid Precursor Protein (APP); test: In vitro BACE-1 cell-based assay (Aβ40 sandwich ELISA); conditions: read-out: IC50 IP (μM) BACE1 cell
Method in brief: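 APP-stable cells, pre-cultured 24 h at 37° C in DMEM/10% FBS, were treated 24 h with compound in a 10-point series starting at 100 μM or 10 μM (0.1% DMSO final). Secreted Aβ40 in conditioned medium was measured by pAb40/biotin-6E10 sandwich ELISA with Europium time-resolved fluorescence; IC50 from percent inhibition versus concentration.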

Chain of human recombinant BACE2 (Q9Y5Z0 63-518): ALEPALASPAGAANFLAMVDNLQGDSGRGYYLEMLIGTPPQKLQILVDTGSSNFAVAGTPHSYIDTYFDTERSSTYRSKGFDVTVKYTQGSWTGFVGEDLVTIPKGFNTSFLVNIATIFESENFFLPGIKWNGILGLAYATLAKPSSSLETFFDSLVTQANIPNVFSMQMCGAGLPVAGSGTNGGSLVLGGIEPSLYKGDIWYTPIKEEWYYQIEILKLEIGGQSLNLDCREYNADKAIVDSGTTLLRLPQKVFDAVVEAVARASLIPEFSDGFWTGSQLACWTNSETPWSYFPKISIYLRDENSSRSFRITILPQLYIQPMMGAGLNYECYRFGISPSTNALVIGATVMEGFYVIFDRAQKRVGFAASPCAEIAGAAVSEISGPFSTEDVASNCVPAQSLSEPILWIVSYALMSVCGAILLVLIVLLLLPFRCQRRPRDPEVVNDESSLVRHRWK
Chain of human recombinant BACE1 (P56817 46-501): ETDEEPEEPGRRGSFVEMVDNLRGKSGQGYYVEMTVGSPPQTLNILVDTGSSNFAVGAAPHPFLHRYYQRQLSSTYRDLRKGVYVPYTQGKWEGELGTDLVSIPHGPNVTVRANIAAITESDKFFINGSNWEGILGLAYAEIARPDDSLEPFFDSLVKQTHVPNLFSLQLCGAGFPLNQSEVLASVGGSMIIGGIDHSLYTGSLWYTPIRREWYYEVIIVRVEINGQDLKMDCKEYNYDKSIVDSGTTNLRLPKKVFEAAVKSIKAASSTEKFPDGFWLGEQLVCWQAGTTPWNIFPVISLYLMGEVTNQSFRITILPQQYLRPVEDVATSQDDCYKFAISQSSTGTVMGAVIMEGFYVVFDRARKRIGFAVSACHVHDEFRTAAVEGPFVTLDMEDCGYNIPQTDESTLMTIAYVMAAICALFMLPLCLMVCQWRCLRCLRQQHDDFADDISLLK
Chain of Recombinant Cat D (P07339 65-412): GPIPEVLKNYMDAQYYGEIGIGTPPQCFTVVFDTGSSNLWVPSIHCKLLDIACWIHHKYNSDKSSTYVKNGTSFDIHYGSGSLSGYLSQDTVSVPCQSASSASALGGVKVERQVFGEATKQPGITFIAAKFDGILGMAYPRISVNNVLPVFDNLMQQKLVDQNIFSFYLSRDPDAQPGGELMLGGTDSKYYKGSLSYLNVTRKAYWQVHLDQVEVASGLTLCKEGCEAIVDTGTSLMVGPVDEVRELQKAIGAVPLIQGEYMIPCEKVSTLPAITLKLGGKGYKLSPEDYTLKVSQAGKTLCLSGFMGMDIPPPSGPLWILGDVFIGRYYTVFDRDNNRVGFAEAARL

Row | SMILES | IC50 (human recombinant BACE2) | IC50 (Recombinant Cat D) | IC50 (human recombinant BACE1) | IC50 [1]
1 | COCCOc1cnc2c(Nc3ccc(F)c([C@@]4(CF)N=C(N)S[C@@]5(COC)C[C@H]54)c3)ncnc2c1 [Example 947, N-(3-((1S,5S,6S)-3-amino-5-(fluoromethyl)-1-(methoxymethyl)-2-thia-4-azabicyclo[4.1.0]hept-3-en-5-yl)-4-fluorophenyl)-7-(2-methoxyethoxy)pyrido[3,2-d]pyrimidin-4-amine] | 0.519 µM | 595 µM | 28.2 nM | 0.0337 µM
2 | COC[C@]12C[C@H]1[C@@](C)(c1cc(Nc3ncnc4cc(OCc5nc(C)oc5C)cnc34)cc(F)c1F)N=C(N)S2 [Example 948, N-(3-((1S,5S,6S)-3-amino-1-(methoxymethyl)-5-methyl-2-thia-4-azabicyclo[4.1.0]hept-3-en-5-yl)-4,5-difluorophenyl)-7-((2,5-dimethyl-1,3-oxazol-4-yl)methoxy)pyrido[3,2-d]pyrimidin-4-amine] | 0.144 µM | 80.9 µM | 3.04 nM | 0.0102 µM
3 | C[C@]1(c2cc(Nc3ncc(F)c4cc(OCc5ncco5)cnc34)cc(F)c2F)N=C(N)S[C@@]2(C(F)F)C[C@@H]12 [Example 949, N-(3-((1S,5S,6S)-3-amino-1-(difluoromethyl)-5-methyl-2-thia-4-azabicyclo[4.1.0]hept-3-en-5-yl)-4,5-difluorophenyl)-5-fluoro-3-(1,3-oxazol-2-ylmethoxy)-1,7-naphthyridin-8-amine] | 0.0588 µM | 336 µM | 2.45 nM | 0.0841 µM
4 | COC[C@]12C[C@H]1[C@@](C)(c1cc(Nc3ncc(F)c4cc(OCc5ncco5)cnc34)cc(F)c1F)N=C(N)S2 [Example 950, N-(3-((1S,5S,6S)-3-amino-1-(methoxymethyl)-5-methyl-2-thia-4-azabicyclo[4.1.0]hept-3-en-5-yl)-4,5-difluorophenyl)-5-fluoro-3-(1,3-oxazol-2-ylmethoxy)-1,7-naphthyridin-8-amine] | 0.118 µM | 384 µM | 5.1 nM | 0.104 µM
5 | C#CCOc1cnc2c(Nc3cc(F)c(F)c([C@@]4(C)N=C(N)S[C@@]5(COC)C[C@H]54)c3)ncc(F)c2c1 [Example 951, N-(3-((1S,5S,6S)-3-amino-1-(methoxymethyl)-5-methyl-2-thia-4-azabicyclo[4.1.0]hept-3-en-5-yl)-4,5-difluorophenyl)-5-fluoro-3-(2-propyn-1-yloxy)-1,7-naphthyridin-8-amine] | 0.0497 µM | 915 µM | 2.33 nM | 0.0603 µM
6 | CCC#CCOc1cnc2c(Nc3ccc(F)c([C@@]4(CF)N=C(N)S[C@@]5(/C=C/C(=O)N(C)C)C[C@H]54)c3)nccc2n1 [Example 952, (2E)-3-((1R,5S,6S)-3-amino-5-(fluoromethyl)-5-(2-fluoro-5-((2-(2-pentyn-1-yloxy)pyrido[3,4-b]pyrazin-5-yl)amino)phenyl)-2-thia-4-azabicyclo[4.1.0]hept-3-en-1-yl)-N,N-dimethyl-2-propenamide] | 0.00755 µM | 16.3 µM | 1.26 nM | 0.0108 µM
7 | C#CCOc1cnc(C(=O)Nc2ccc(F)c([C@@]3(CF)N=C(N)S[C@@]4(COCC(F)(F)F)C[C@H]43)c2)cn1 [Example 953, N-(3-((1S,5S,6S)-3-amino-5-(fluoromethyl)-1-((2,2,2-trifluoroethoxy)methyl)-2-thia-4-azabicyclo[4.1.0]hept-3-en-5-yl)-4-fluorophenyl)-5-(2-propyn-1-yloxy)-2-pyrazinecarboxamide] | 0.0267 µM | 61.9 µM | 0.28 nM | 0.00149 µM
8 | NC1=N[C@](CF)(c2cc(NC(=O)c3ccc(Cl)cn3)ccc2F)[C@@H]2C[C@]2(COCC(F)(F)F)S1 [Example 954, N-(3-((1S,5S,6S)-3-amino-5-(fluoromethyl)-1-((2,2,2-trifluoroethoxy)methyl)-2-thia-4-azabicyclo[4.1.0]hept-3-en-5-yl)-4-fluorophenyl)-5-chloro-2-pyridinecarboxamide] | 0.00382 µM | 715 µM | 5.79 nM | 0.0144 µM

Other lines, results leading:

Row | IC50 (human recombinant BACE2) | IC50 (Recombinant Cat D) | IC50 (human recombinant BACE1) | IC50 [1] | SMILES
9 | 0.0501 µM | 48 µM | 0.805 nM | 0.00178 µM | C#CCOc1cnc(C(=O)Nc2ccc(F)c([C@@]3(CF)N=C(N)S[C@@]4(COC(C)C)C[C@H]43)c2)cn1 [Example 955, N-(3-((1S,5S,6S)-3-amino-5-(fluoromethyl)-1-((1-methylethoxy)methyl)-2-thia-4-azabicyclo[4.1.0]hept-3-en-5-yl)-4-fluorophenyl)-5-(2-propyn-1-yloxy)-2-pyrazinecarboxamide]
10 | < 0.00203 µM | 341 µM | 0.927 nM | 0.019 µM | NC1=N[C@](CF)(c2cc(NC(=O)c3ccc(Cl)cn3)ccc2F)[C@@H]2C[C@]2(c2c[nH]nn2)S1 [Example 956, N-(3-((1S,5S,6S)-3-amino-5-(fluoromethyl)-1-(1H-1,2,3-triazol-4-yl)-2-thia-4-azabicyclo[4.1.0]hept-3-en-5-yl)-4-fluorophenyl)-5-chloro-2-pyridinecarboxamide]
11 | 0.0662 µM | 354 µM | 1.2 nM | 0.04 µM | CC#C[C@]12C[C@H]1[C@@](CF)(c1cc(Nc3nccc4nc(OCc5ncco5)cnc34)ccc1F)N=C(N)S2 [Example 958, N-(3-((1S,5S,6S)-3-amino-5-(fluoromethyl)-1-(1-propyn-1-yl)-2-thia-4-azabicyclo[4.1.0]hept-3-en-5-yl)-4-fluorophenyl)-2-(1,3-oxazol-2-ylmethoxy)pyrido[3,4-b]pyrazin-5-amine]
12 | < 0.00203 µM | 44.1 µM | 0.0901 nM | 0.00152 µM | C#CCOc1cnc(C(=O)Nc2ccc(F)c([C@@]3(CF)N=C(N)S[C@@]4(c5c[nH]nn5)C[C@@H]34)c2)cn1 [Example 959, N-(3-((1S,5S,6S)-3-amino-5-(fluoromethyl)-1-(1H-1,2,3-triazol-4-yl)-2-thia-4-azabicyclo[4.1.0]hept-3-en-5-yl)-4-fluorophenyl)-5-(2-propyn-1-yloxy)-2-pyrazinecarboxamide]
13 | 0.00422 µM | > 400 µM | 0.507 nM | 0.00624 µM | C#CCOc1cnc2c(Nc3ccc(F)c([C@@]4(CF)N=C(N)S[C@@]5(c6c[nH]nn6)C[C@@H]45)c3)nccc2n1 [Example 960, N-(3-((1S,5S,6S)-3-amino-5-(fluoromethyl)-1-(1H-1,2,3-triazol-4-yl)-2-thia-4-azabicyclo[4.1.0]hept-3-en-5-yl)-4-fluorophenyl)-2-(2-propyn-1-yloxy)pyrido[3,4-b]pyrazin-5-amine]
14 | 0.0223 µM | 171 µM | 12 nM | 0.0214 µM | C[C@]1(c2cc(Nc3ncnc4cc(C#N)cnc34)ccc2F)N=C(N)S[C@@]2(CO)[C@@H]1C2(F)F [Example 961, 4-((3-((1R,5S,6S)-3-amino-7,7-difluoro-1-(hydroxymethyl)-5-methyl-2-thia-4-azabicyclo[4.1.0]hept-3-en-5-yl)-4-fluorophenyl)amino)pyrido[3,2-d]pyrimidine-7-carbonitrile]
15 | 0.0199 µM | 21 µM | 10 nM | 0.104 µM | NC1=N[C@](CF)(c2cc(NC(=O)c3ccc(Cl)cn3)ccc2F)[C@H]2C3CSC[C@@]32S1 (stereo partly drawn) [Example 962, N-(3-((4S,4aR,7aS)-2-amino-4-(fluoromethyl)-4a,4b,5,7-tetrahydro-4H-thieno[3′,4′:2,3]cyclopropa[1,2-e][1,3]thiazin-4-yl)-4-fluorophenyl)-5-chloropicolinamide]
16 | 0.0631 µM | 267 µM | 0.194 nM | 0.0026 µM | CNC(=O)[C@]12C[C@H]1[C@@](C)(c1cc(NC(=O)c3cnc(OCC(F)(F)C(F)F)cn3)cc(F)c1F)N=C(N)S2 [Example 963, (1S,5S,6S)-3-amino-5-(2,3-difluoro-5-(((5-(2,2,3,3-tetrafluoropropoxy)-2-pyrazinyl)carbonyl)amino)phenyl)-N,5-dimethyl-2-thia-4-azabicyclo[4.1.0]hept-3-ene-1-carboxamide]
17 | 0.00887 µM | 98.9 µM | 0.737 nM | 0.00154 µM | C#CCOc1cnc(C(=O)Nc2cnc(OC)c([C@@]3(C)N=C(N)S[C@@]4(C#N)C[C@H]43)c2)cn1 [Example 964, N-(5-((1S,5S,6S)-3-amino-1-cyano-5-methyl-2-thia-4-azabicyclo[4.1.0]hept-3-en-5-yl)-6-methoxy-3-pyridinyl)-5-(2-propyn-1-yloxy)-2-pyrazinecarboxamide]
18 | 0.0149 µM | 269 µM | 0.11 nM | 0.000539 µM | C#C[C@H](C)Oc1cnc(C(=O)Nc2cc(F)c(F)c([C@@]3(C)N=C(N)S[C@@]4(C(=O)NC)C[C@H]43)c2)cn1 [Example 967, (1S,5S,6S)-3-amino-5-(2,3-difluoro-5-(((5-(((1S)-1-methyl-2-propyn-1-yl)oxy)-2-pyrazinyl)carbonyl)amino)phenyl)-N,5-dimethyl-2-thia-4-azabicyclo[4.1.0]hept-3-ene-1-carboxamide]
